# What was measured:
# Assay in all cases: Combination study, ATPLite 72 h, dose matrix (Synergy Score, CI50)
# HH = format: cell-based; settings: combination with Compound 1
# Method: The method is described as follows.
# Additive effect is CI=1.0. […] Antagonistic effect is CI>1.0.
# The Synergy Score is calculated as: […]
# HBL-1 = settings: combination with Compound 1, 72 h
# OCI-Ly3 = settings: combination with Compound 1; OCI-Ly3; 72 h
# Method: (§1) Cells are thawed from a liquid nitrogen preserved state. Once cells have been expanded and divide at their expected doubling times, screening begins. Cells are seeded in growth media in either black 1536-well or 384-well tissue culture treated plates. Cells are then equilibrated in assay plates via centrifugation and placed in incubators attached to the Dosing Modules at 37° C. for 24 hours before treatment. […] These Tzero (To) plates are read using ultra-sensitive luminescence on Envision plate readers (Perkin Elmer). Treated assay plates are incubated with compound for 72 hours. After 72 hours, plates are developed for endpoint analysis using ATPLite. All data points are collected via automated processes, quality controlled and analyzed using Zalicus software.
# (§2) where T is treated cell count and V is untreated (vehicle) cell count (at 72 hours). I ranges from 0% (when T=V) to 100% (when T=0). […] The measure of effect in the experiment can be the inhibition of cellular response relative to the untreated level (vehicle alone). […] The inhibition ranges from 0% at the untreated level to 100% when T=0. Inhibition levels are negative for agents that actually increase levels. Other effect measures, such as an activity ratio r=T/V may be more appropriate for some assays. When activity ratios (e.g, fold increase over stimulated control) are being used, the effect can be measured using an induction 1=ln(T/V). With this definition, all effect expressions are the same as for inhibition.
# (§3) Growth Inhibition (GI) is used as a measure of cell viability. […] A GI reading of 100% represents complete growth inhibition—T72 compound-treated and T0 vehicle signals are matched. […] A GI reading of 200% represents complete death of all cells in the culture well. Compounds reaching an activity plateau of GI 200% are considered cytotoxic. GI is calculated by applying the following test and equation:
# (§4) Combination analysis data were collected in a 6×6 dose matrix. Synergy is calculated by comparing a combination's response to those of its single compound, against the drug-with-itself dose-additive reference model. Deviations from dose additivity may be assessed visually on an isobologram or numerically with a Combination Index (CI). […] Additive effect is CI=1.0. […] Antagonistic effect is CI>1.0.
# (§5) To measure combination effects in excess of Loewe additivity, a scalar measure to characterize the strength of synergistic interaction termed the Synergy Score is devised. The Synergy Score is calculated as:
# (§6) The fractional inhibition for each component agent and combination point in the matrix is calculated relative to the median of all vehicle-treated control wells. The Synergy Score equation integrates the experimentally-observed activity volume at each point in the matrix in excess of a model surface numerically derived from the activity of the component agents using the Loewe model for additivity. Additional terms in the Synergy Score equation (above) are used to normalize for various dilution factors used for individual agents and to allow for comparison of synergy scores across an entire experiment. The inclusion of positive inhibition gating or an Idata multiplier removes noise near the zero effect level, and biases results for synergistic interactions at that occur at high activity levels.
# Loewe Volume (Loewe Vol) is used to assess the overall magnitude of the combination interaction in excess of the Loewe additivity model. Loewe Volume is particularly useful when distinguishing synergistic increases in a phenotypic activity (positive Loewe Volume) versus synergistic antagonisms (negative Loewe Volume). […] This model defines additivity as a non-synergistic combination interaction where the combination dose matrix surface should be indistinguishable from either drug crossed with itself. The calculation for Loewe additivity is:
# U-2932 = settings: combination with Compound 1, 72 h
# TMD8 = settings: combination with Compound 1; TMD8; 72 h
# OCI-Ly7 = settings: combination with Compound 1, 72 h
# SU-DHL-4-epst = settings: combination with Compound 1, 72 h
# DOHH-2 = settings: combination with Compound 1, 72 h
# Farage = settings: combination with Compound 1; Farage; 72 h
# SU-DHL-10-epst = settings: combination with Compound 1, 72 h
# RL = settings: combination with Compound 1, 72 h
# KARPAS-422 = settings: combination with Compound 1, 72 h
# WSU-NHL = settings: combination with Compound 1, 72 h
# KARPAS-299 = settings: combination with Compound 1
# GRANTA-519 = settings: combination with Compound 1
# Method: as §1, §2, §3, §4, §5, §6
# (§7) Loewe Volume (Loewe Vol) is used to assess the overall magnitude of the combination interaction in excess of the Loewe additivity model. Loewe Volume is particularly useful when distinguishing synergistic increases in a phenotypic activity (positive Loewe Volume) versus synergistic antagonisms (negative Loewe Volume). […] This model defines additivity as a non-synergistic combination interaction where the combination dose matrix surface should be indistinguishable from either drug crossed with itself.
# Jeko-1 = settings: combination with Compound 1
# Mino = settings: combination with Compound 1
# Method: as §1, §2, §3, §4, §5, §6, §7
# NCI-H929 = settings: combination with Compound 1
# OMP-2 = settings: combination with Compound 1; OPM-2
# Method: as §1, §2, §3, §4, §5, §6, §7
# RPMI-8226 = settings: combination with Compound 1
smiles,measurement,setting,value
"O=C(Nc1ccc2[nH]nc(-c3ccncc3)c2c1)[C@@H]1CCN(CC(=O)N2CCN(c3ccc(-c4ncccn4)cc3)CC2)C1 [SCH772984, (R)-1-(2-oxo-2-(4-(4-(pyrimidin-2-yl)phenyl)piperazin-1-yl)ethyl)-N-(3-(pyridin-4-yl)-1H-indazol-5-yl)pyrrolidine-3-carboxamide]",CI50 growth inhibition,HH,T (T=0.5 to <0.7)
same,CI50 inhibition,HH,S (S=0.01 to <0.5)
same,Synergy Score growth inhibition,HH,A1 (A1=0.0001 to <1)
same,Synergy Score inhibition,HH,A1 (A1=0.0001 to <1)
same,CI50 growth inhibition,HBL-1,T (T=0.5 to <0.7)
same,Synergy Score growth inhibition,HBL-1,A1 (A1=0.0001 to <1)
same,Synergy Score inhibition,HBL-1,A1 (A1=0.0001 to <1)
same,CI50 growth inhibition,OCI-Ly3,W (W=≥1)
same,Synergy Score growth inhibition,OCI-Ly3,A1 (A1=0.0001 to <1)
same,Synergy Score inhibition,OCI-Ly3,A1 (A1=0.0001 to <1)
same,CI50 growth inhibition,U-2932,W (W=≥1)
same,Synergy Score growth inhibition,U-2932,A1 (A1=0.0001 to <1)
same,Synergy Score inhibition,U-2932,A1 (A1=0.0001 to <1)
same,CI50 growth inhibition,TMD8,T (T=0.5 to <0.7)
same,CI50 inhibition,TMD8,U (U=0.7 to <1)
same,Synergy Score growth inhibition,TMD8,A1 (A1=0.0001 to <1)
same,Synergy Score inhibition,TMD8,A1 (A1=0.0001 to <1)
same,Synergy Score growth inhibition,OCI-Ly7,A1 (A1=0.0001 to <1)
same,Synergy Score inhibition,OCI-Ly7,A1 (A1=0.0001 to <1)
same,CI50 growth inhibition,SU-DHL-4-epst,W (W=≥1)
same,Synergy Score growth inhibition,SU-DHL-4-epst,A1 (A1=0.0001 to <1)
same,Synergy Score inhibition,SU-DHL-4-epst,A1 (A1=0.0001 to <1)
same,CI50 growth inhibition,DOHH-2,W (W=≥1)
same,CI50 inhibition,DOHH-2,W (W=≥1)
same,Synergy Score growth inhibition,DOHH-2,A1 (A1=0.0001 to <1)
same,Synergy Score inhibition,DOHH-2,A1 (A1=0.0001 to <1)
same,CI50 growth inhibition,Farage,T (T=0.5 to <0.7)
same,CI50 inhibition,Farage,W (W=≥1)
same,Synergy Score growth inhibition,Farage,A1 (A1=0.0001 to <1)
same,Synergy Score inhibition,Farage,A1 (A1=0.0001 to <1)
same,CI50 growth inhibition,SU-DHL-10-epst,T (T=0.5 to <0.7)
same,CI50 inhibition,SU-DHL-10-epst,W (W=≥1)
same,Synergy Score growth inhibition,SU-DHL-10-epst,A2 (A2=1 to <3)
same,Synergy Score inhibition,SU-DHL-10-epst,A2 (A2=1 to <3)
same,Synergy Score growth inhibition,RL,A1 (A1=0.0001 to <1)
same,Synergy Score inhibition,RL,A1 (A1=0.0001 to <1)
same,CI50 growth inhibition,KARPAS-422,T (T=0.5 to <0.7)
same,CI50 inhibition,KARPAS-422,W (W=≥1)
same,Synergy Score growth inhibition,KARPAS-422,A1 (A1=0.0001 to <1)
same,Synergy Score inhibition,KARPAS-422,A1 (A1=0.0001 to <1)
same,CI50 growth inhibition,WSU-NHL,U (U=0.7 to <1)
same,CI50 inhibition,WSU-NHL,U (U=0.7 to <1)
same,Synergy Score growth inhibition,WSU-NHL,A1 (A1=0.0001 to <1)
same,Synergy Score inhibition,WSU-NHL,A1 (A1=0.0001 to <1)
same,Synergy Score growth inhibition,KARPAS-299,A1 (A1=0.0001 to <1)
same,Synergy Score inhibition,KARPAS-299,A1 (A1=0.0001 to <1)
same,Synergy Score growth inhibition,GRANTA-519,A1 (A1=0.0001 to <1)
same,Synergy Score inhibition,GRANTA-519,A1 (A1=0.0001 to <1)
same,CI50 growth inhibition,Jeko-1,W (W=≥1)
same,Synergy Score growth inhibition,Jeko-1,A1 (A1=0.0001 to <1)
same,Synergy Score inhibition,Jeko-1,A1 (A1=0.0001 to <1)
same,CI50 growth inhibition,Mino,W (W=≥1)
same,Synergy Score growth inhibition,Mino,A1 (A1=0.0001 to <1)
same,Synergy Score inhibition,Mino,A1 (A1=0.0001 to <1)
same,CI50 growth inhibition,NCI-H929,W (W=≥1)
same,CI50 inhibition,NCI-H929,W (W=≥1)
same,Synergy Score growth inhibition,NCI-H929,A1 (A1=0.0001 to <1)
same,Synergy Score inhibition,NCI-H929,A1 (A1=0.0001 to <1)
same,Synergy Score growth inhibition,OMP-2,A1 (A1=0.0001 to <1)
same,Synergy Score inhibition,OMP-2,A1 (A1=0.0001 to <1)
same,Synergy Score growth inhibition,RPMI-8226,A1 (A1=0.0001 to <1)
same,Synergy Score inhibition,RPMI-8226,A1 (A1=0.0001 to <1)
